Assays:
[1] = In vitro interaction of ramoplanin with human intestinal contents
Source text: The in vitro interaction of ramoplanin with human intestinal contents was studied. […] The binding and the subsequent release of ramoplanin from feces would likely result in long-lasting concentrations in the intestinal tract.

VRE = experiment: Multiple dose study in asymptomatic carriers of intestinal VRE; assay type: in vivo, human; details: for patients with no detectable VRE, number / patients with no detectable VRE: Day 7; for patients with no detectable VRE: rectal swab; for patients VRE free: Day 14 (seven days after cessation); for patients VRE free, number: Day 14
Description: Patients identified as asymptomatic carriers of VRE were administered placebo or one of two dosages (100 mg, 400 mg) of ramoplanin b.i.d. (twice daily) for seven days. Patients were assessed by rectal swab on Days 7, 14, and 21 to determine the presence or absence of VRE. On Days 45 and 90, stool samples were analyzed for long-term effects of ramoplanin on the recurrence of, or re-infection with, VRE. All VRE isolates were tested for susceptibility to ramoplanin.

fecal Enterococci = experiment: Oral formulation study: suppression of fecal Enterococci; assay type: in vivo, human; details: 400 mg b.i.d. seven days, granulated powder in Orasweet syrup; day 7/8
Description: To further elucidate the pharmacodynamics and intestinal bioavailability, healthy male volunteers (18-45 years; BMI—19-29 kg/m^2) were administered oral ramoplanin (400 mg b.i.d.) for seven days and fecal Enterococci were monitored. Ramoplanin was administered to six subjects as a granulated powder admixed with Orasweet® syrup vehicle.
The presence of fecal enterococci was confirmed in all subjects prior to study initiation. Fecal samples were cultured on day 7/8. The pharmacodynamic endpoints was the number of subjects with successful suppression of fecal Enterococci on day 7/8 compared to the pre-study culture.

[2] = Single dose study in healthy male volunteers: absorption and fecal recovery; assay type: in vivo, human
Description: The absorption, tolerability, and recovery of ramoplanin following single dose oral administration were investigated in male volunteers. Ramoplanin was administered as an aqueous solution at a dose of 100, 200, 500, or 1000 mg to fasting subjects. Serum samples were obtained prior to drug administration of ramoplanin and 0.5, 1, 2, 3, 6, 9, 12, 24, 48, 72, and 96 hours after treatment. Urine samples were collected prior to administration of ramoplanin and over the periods 0-3, 3-6, 6-12, 12-24, 24-48, 48-72, and 72-96 hours after dosing. Fecal samples were collected prior to dosing and over the periods 0-16 (Day 1), 16-40 (Day 2), 40-64 (Day 3), 64-88 (Day 4), and 88-96 (Day 5) hours after dosing. A microbiological assay employing Bacillis subtilis ATCC 6633 as the test organism was used to determine ramoplanin concentrations in serum, urine, and feces. The limits of quantitation for this assay were 0.02 μg/mL in serum, 0.012 μg/mL in urine, and 3 μg/g in feces. Tolerability was assessed on the basis of clinical signs and symptoms and the results of blood and urine laboratory tests.

[3] = Oral bioavailability and pharmacokinetics in the rat; assay type: in vivo
Description: The oral availability of ramoplanin was assessed by comparing a 1000 mg/kg oral dose with a 5 mg/kg intravenous dose in the rat. […] The mean absorption time was 3.4 hours. […] Terminal elimination half-lives were 3.5 and 5.9 hours for the intravenous and oral doses, respectively. […] In intravenously treated rats, the amount excreted in urine represented less than 0.01% of the administered dose.

peptidoglycan synthesis = experiment: Macromolecular biosynthesis (carbon-14 precursor incorporation); assay type: cell-based; details: ramoplanin at the MIC
Description: The efficacy of ramoplanin was tested against recently isolated VRE that are resistant to linezolid and quinupristin/dalfopristin. The culture media containing ramoplanin was supplemented with 0.02% bovine serum albumin (BSA) to prevent ramoplanin binding to the plastic. MIC values were determined in both cation-adjusted Mueller-Hinton broth (CAMHB) and trypticase soy broth (TSB) by the National Committee for Clinical Laboratory Standards (NCCLS) broth microdilution method. Macromolecular biosynthesis experiments were done by following the incorporation of carbon-14-labeled N-acetylglucosamine, acetic acid, amino acids, uridine, and thymidine into peptidoglycan, fatty acid, protein, RNA and DNA, respectively.

[4] = Bioavailability and serum pharmacokinetics in Beagle dogs; assay type: in vivo
Description: The bioavailability of a 300 mg/kg ramoplanin oral gelatin capsule and the serum pharmacokinetics of a 5 mg/kg intravenous dose were examined in four male Beagle dogs.

## Ramoplanin
[1]
  binding to feces: bind reversibly to solid components of feces
  microbiological activity in feces: microbiologically active in feces
VRE; 100 mg b.i.d. for seven days
  patients with no detectable VRE, number: 17 of 21
  patients with no detectable VRE: 81.0%
VRE; 400 mg b.i.d. for seven days
  patients with no detectable VRE, number: 18 of 20
  patients with no detectable VRE: 90.0%
VRE; 100 mg b.i.d.
  patients VRE free: 28.6%
  patients VRE free, number: 6 of 21
VRE; 400 mg b.i.d.
  patients VRE free: 41.2%
  patients VRE free, number: 7 of 17
VRE; Day 21
  number of VRE-free patients: comparable among all treatment groups
Fecal Enterococci
  growth of fecal enterococci: suppressed in all test subjects
[2]; fourth day of study, single oral dose
  subjects with ramoplanin still detectable in feces: 17 of 24
[2]; healthy male volunteers, single oral doses up to 1000 mg and multiple oral doses 200, 400, 800 mg B.I.D. 10 days, bioassay and HPLC
  ramoplanin in serum/plasma or urine: not detected
[2]; single oral dose 100 mg
  Mean cumulative recovery of ramoplanin in feces: 67.7 % of the administered dose
  Mean maximum concentration in feces: 214 µg/g
  cumulative recovery of ramoplanin in feces, range: 55.7-84 % of the administered dose
  maximum concentration in feces, range: 148 to 278 µg/g
[2]; single oral dose 200 mg
  Mean cumulative recovery of ramoplanin in feces: 48.5 % of the administered dose
  Mean maximum concentration in feces: 287 µg/g
  cumulative recovery of ramoplanin in feces, range: 39.3-56.5 % of the administered dose
  maximum concentration in feces, range: 164 to 454 µg/g
[2]; single oral dose 500 mg
  Mean cumulative recovery of ramoplanin in feces: 52.8 % of the administered dose
  Mean maximum concentration in feces: 1655 µg/g
  cumulative recovery of ramoplanin in feces, range: 41.3-79.6 % of the administered dose
  maximum concentration in feces, range: 737 to 3316 µg/g
[2]; single oral dose 1000 mg
  Mean cumulative recovery of ramoplanin in feces: 46.4 % of the administered dose
  Mean maximum concentration in feces: 1835 µg/g
  cumulative recovery of ramoplanin in feces, range: 39.9-58.4 % of the administered dose
  maximum concentration in feces, range: 1336 to 3154 µg/g
[2]; single oral dose 100-1000 mg
  time of maximum ramoplanin concentration and maximum percentage recovery in feces: the day after administration (Day 2)
[3]; intravenously treated rats
  amount excreted in urine: less than 0.01 % of the administered dose
[3]; rat
  distribution: not widely distributed outside the central compartment
  volume of distribution at steady state: 0.75 L/kg
  volume of the central compartment: 0.42 L/kg
[3]; rat, 5 mg/kg intravenous
  time of maximum observed serum concentration: 0.083 h
[3]; rat, 1000 mg/kg oral
  Maximum observed serum concentration: 2.8 µg/mL
  mean absorption time: 3.4 h
  time of maximum observed serum concentration: 0.5 h
[3]; rat, 1000 mg/kg oral relative to 5 mg/kg intravenous
  absolute bioavailability (F): 0.18%
[3]; rat, intravenous dose
  Terminal elimination half-life: 3.5 h
[3]; rat, oral dose
  Terminal elimination half-life: 5.9 h
Peptidoglycan synthesis
  first macromolecular biosynthetic pathway inhibited: peptidoglycan synthesis
[4]
  distribution to tissues: not distributed widely to tissues
[4]; 300 mg/kg oral gelatin capsule
  mean absorption time: 8.19 ± 3.12 h
[4]; 300 mg/kg oral gelatin capsule vs 5 mg/kg intravenous
  absolute bioavailability: less than 1%
